Data: patent US11452292B2, “Biofilm inhibitor and method of inhibiting biofilm” (NDSU Research Foundation, priority 2017, dated 2022)
Values after ≈ are worked out from the molar mass of the structure shown. Read-outs that look alike come from different tables or passages of the source.

Tests used:
E. coli O157:H7 [1] = assay: Biofilm amounts in liquid beef broth at 10° C.; type: cell-based; settings: for effect on bacterial cell counts and biofilm amounts: E. coli O157:H7 grown in liquid beef broth at 10° C.; for IC50: Escherichia coli, read-out: IC50 biofilm
E. coli O157:H7 [2] = assay: Bacterial cell number in liquid beef broth at 10° C.; type: cell-based; settings: Escherichia coli, read-out: IC50 cell number
E. coli K-12 [3] = assay: Biofilm, supplement/control, TB medium; type: cell-based
flhD [4] = assay: flhD, supplement/control, TB medium; type: cell-based, E. coli K-12
E. coli K-12 [5] = type: cell-based
C. sakazakii [6] = assay: Planktonic growth (maximal velocity of OD600) in TSB; type: cell-based; settings: Cronobacter sakazakii, 37° C.
Procedure: (§1) The IC50 values were calculated using […] software (Hitachi Solutions, San Bruno, Calif.).

S. marcescens [7] = assay: as above; type: cell-based; settings: Serratia marcescens, 30° C.
Procedure: as §1

C. sakazakii [8] = assay: Biofilm amounts, CV assay, 24-well polystyrene plate; type: cell-based; settings: Cronobacter sakazakii, 37° C.
From the text: (§2) Data were expressed as OD600.

S. marcescens [9] = assay: as above; type: cell-based; settings: Serratia marcescens, 30° C.
From the text: as §2

C. sakazakii [10] = assay: Biofilm amounts, ATP assay, 24-well polystyrene plate; type: cell-based; settings: Cronobacter sakazakii, 37° C.
S. marcescens [11] = assay: as above; type: cell-based; settings: Serratia marcescens, 30° C.
Y. enterocolitica [12] = assay: Planktonic growth (maximal velocity of OD600) in TSB; type: cell-based, Yersinia enterocolitica; settings: Yersinia enterocolitica, Y. enterocolitica, 37° C.
Procedure: as §1

Y. enterocolitica [13] = assay: Biofilm amounts, CV assay, 24-well polystyrene plate; type: cell-based, Yersinia enterocolitica; settings: Yersinia enterocolitica, Y. enterocolitica
From the text: as §2

Y. enterocolitica [14] = assay: Biofilm amounts, ATP assay, 24-well polystyrene plate; type: cell-based, Yersinia enterocolitica; settings: Yersinia enterocolitica, Y. enterocolitica
Y. enterocolitica [15] = assay: Motility assay on motility plates; type: cell-based, Yersinia enterocolitica; settings: 5 mg/ml of AAA, 25° C., semi solid tryptone broth agar plates
flhD [16] = assay: qPCR of mRNA transcript in response to AAA; settings: 5 mg/ml AAA; biofilm associated and planktonic bacteria, 25 and 37° C.
virF = assay: qPCR of mRNA transcript in response to AAA; settings: 5 mg/ml AAA; biofilm, both temperatures
ymoA = assay: qPCR of mRNA transcript in response to AAA; settings: 5 mg/ml AAA
yadA = assay: qPCR of mRNA transcript in response to AAA; settings: 5 mg/ml AAA
C. sakazakii [17] = assay: Growth and biofilm assays taken together (growth, CV, ATP); settings: Cronobacter sakazakii, read-out: IC50 values, range over growth, CV and ATP assays
S. marcescens [18] = assay: as above; settings: Serratia marcescens, read-out: IC50 values, range over growth, CV and ATP assays
Y. enterocolitica [19] = assay: as above; settings: Yersinia enterocolitica, read-out: IC50 values, range over growth, CV and ATP assays
S. aureus = assay: Biofilm amounts on PEA containing polyurethane relative to plain polyurethane; type: cell-based, Staphylococcus aureus; settings: 5 wt. % PEA in polyurethane vs 0% PEA
From the text: The instant inventors modified a material that is commonly used in clinical and food processing contexts, polyurethane, with β-phenylethylamine (PEA). To produce the PEA containing polyurethane (PU-PEA), food grade polyurethane (Zythane 7085A™) was impregnated with 0, 2.5, 5.0, and 10.0 weight percent PEA and a heat-melt extruded. At 10 wt. %, PEA formed aggregates and was not anymore uniformly distributed throughout the material (FIG. 17).
The biofilm inhibiting efficacy of 5 wt. % PEA was then tested against six bacterial strains (FIG. 18). E. coli AJW is non-pathogenic and was described as a good former of biofilm, P. aeruginosa is a pathogen that was described as a contaminant on conveyor belts, but also forms biofilm on urinary catheters. S. aureus causes staph infections and can form biofilm in intravenous catheters, E. coli O157:H7 has been studied in multiple foods and on numerous food processing surfaces, and the two E. coli UPEC strains are uropathogens that are commonly found on catheters. PU/PEA had reduced biofilm amounts relative to plain polyurethane for all strains tested. Reductions varied between 5 and 80% in depending on the bacterial pathogen. In particular, this initial PU-PEA material was able to reduce Staphylococcus aureus biofilm by 80% and biofilm of several other bacterial pathogens by 20 to 50%.

bacteria = assay: Live/dead assay with fluorescence dyes; type: cell-based; settings: live/dead staining, preliminary data
Procedure: To determine whether the bacteria were being adversely affected by PEA, a live/dead assay was performed where the total bacterial population and the population of dead bacteria were stained with different fluorescence dyes. […] This supports the argument that the bacterial nutrients reduce biofilm amounts without killing the bacteria, therefore, reducing the likelihood of the development of resistance.

O=P(O)(O)OCC(O)CO (racemic) [D,L-glycerol phosphate]
effect on bacterial cell counts and biofilm amounts (E. coli O157:H7 [1]): inhibit bacterial cell counts and biofilm amounts

CCCCCCC(N)C(=O)O (racemic) [D,L-α-aminocaprylic acid]
effect on bacterial cell counts and biofilm amounts (E. coli O157:H7 [1]): inhibit bacterial cell counts and biofilm amounts
IC50 (E. coli O157:H7 [1]): 1.84 mg/mL (≈ 11.6 mM)
IC50 (E. coli O157:H7 [2]): 1.96 mg/mL (≈ 12.3 mM)
Ratio, biofilm (supplement/control) (E. coli K-12 [3]): 0.85
Ratio, flhD (supplement/control) (flhD [4]): 0.55
Ratio, growth (supplement/control) (E. coli K-12 [5]): 0.26

CC(=O)CC(=O)O [AAA, acetoacetate]
IC50 (C. sakazakii [6]): 20 mg/mL (≈ 196 mM)
IC50 (S. marcescens [7]): 29 mg/mL (≈ 284 mM)
IC50 (C. sakazakii [8]): 22 mg/mL (≈ 215 mM)
IC50 (S. marcescens [9]): 35 mg/mL (≈ 343 mM)
IC50 (C. sakazakii [10]): 24 mg/mL (≈ 235 mM)
IC50 (S. marcescens [11]): 24 mg/mL (≈ 235 mM)
IC50 (Y. enterocolitica [12]): 11 mg/mL (≈ 108 mM)
IC50 (Y. enterocolitica [13]; 25° C.): 26 mg/mL (≈ 255 mM)
IC50 (Y. enterocolitica [13]; 37° C.): 14 mg/mL (≈ 137 mM)
IC50 (Y. enterocolitica [14]; 25° C.): 18 mg/mL (≈ 176 mM)
IC50 (Y. enterocolitica [14]; 37° C.): 12 mg/mL (≈ 118 mM)
motility in the presence of AAA (Y. enterocolitica [15]): about 0.25 mm/h
reduction of mRNA levels of flhD (flhD [16]): approximately 5 fold
reduction of virF transcript (virF): about 3 fold
effect of AAA on ymoA transcription (ymoA): no effect
reduction of mRNA levels for yadA (yadA; biofilm bound bacteria at 25° C.): ~10 fold
reduction of mRNA levels for yadA (yadA; planktonic bacteria at 37° C.): approximately 20 fold
IC50 (C. sakazakii [17]): 20 to 24 mg/mL (≈ 196 to 235 mM)
IC50 (S. marcescens [18]): 24 to 35 mg/mL (≈ 235 to 343 mM)
IC50 (Y. enterocolitica [19]): 11 to 14 mg/mL (≈ 108 to 137 mM)

NC(=O)C[C@@H](N)C(=O)O [D-asparagine]
effect on bacterial cell counts and biofilm amounts (E. coli O157:H7 [1]): inhibit bacterial cell counts and biofilm amounts
IC50 (E. coli O157:H7 [1]): 0.2 mg/mL (≈ 1.51 mM)
IC50 (E. coli O157:H7 [2]): 0.62 mg/mL (≈ 4.69 mM)
Ratio, biofilm (supplement/control) (E. coli K-12 [3]): 1.07
Ratio, flhD (supplement/control) (flhD [4]): 1.2
Ratio, growth (supplement/control) (E. coli K-12 [5]): 0.9

N[C@@H]1C(O)O[C@H](CO)[C@@H](O)[C@@H]1O (stereo partly drawn) [D-mannosamine]
effect on bacterial cell counts and biofilm amounts (E. coli O157:H7 [1]): inhibit bacterial cell counts and biofilm amounts

O=C[C@H](O)[C@@H](O)[C@H](O)CO [D-xylose]
effect on growth and biofilm amounts (E. coli K-12 [3]): inhibitors of growth and biofilm amounts
Ratio, biofilm (supplement/control) (E. coli K-12 [3]; E. coli K-12, TB, 25° C.): 0.59
Ratio, flhD (supplement/control) (flhD [4]; E. coli K-12, TB, 25° C.): 0.56
Ratio, growth (supplement/control) (E. coli K-12 [5]; E. coli K-12, TB, 25° C.): 0.91

O=C[C@H](O)[C@H](O)[C@@H](O)CO [L-lyxose]
effect on bacterial cell counts and biofilm amounts (E. coli O157:H7 [1]): inhibit bacterial cell counts and biofilm amounts
IC50 (E. coli O157:H7 [1]): 76 mg/mL (≈ 506 mM)
IC50 (E. coli O157:H7 [2]): 72 mg/mL (≈ 480 mM)
Ratio, biofilm (supplement/control) (E. coli K-12 [3]): 0.71
Ratio, flhD (supplement/control) (flhD [4]): 0.68
Ratio, growth (supplement/control) (E. coli K-12 [5]): 0.98

NCCc1ccccc1 [PEA, β-phenylethylamine]
reduction of Staphylococcus aureus biofilm (S. aureus): 80%
viability of the bacteria (bacteria): not impacted
effect on bacterial cell counts and biofilm amounts (E. coli O157:H7 [1]): inhibit bacterial cell counts and biofilm amounts
IC50 (E. coli O157:H7 [1]): 0.34 mg/mL (≈ 2.81 mM)
IC50 (E. coli O157:H7 [2]): 0.32 mg/mL (≈ 2.64 mM)
Ratio, biofilm (supplement/control) (E. coli K-12 [3]): 1.1
Ratio, flhD (supplement/control) (flhD [4]): 1.3
Ratio, growth (supplement/control) (E. coli K-12 [5]): 0.81

Cc1c[nH]c(=O)[nH]c1=O [thymine]
effect on bacterial cell counts and biofilm amounts (E. coli O157:H7 [1]): inhibit bacterial cell counts and biofilm amounts

CCC(=O)C(=O)O [α-keto-butyric acid]
effect on growth and biofilm amounts (E. coli K-12 [3]): inhibitors of growth and biofilm amounts
Ratio, biofilm (supplement/control) (E. coli K-12 [3]; E. coli K-12, TB, 25° C.): 0.62
Ratio, flhD (supplement/control) (flhD [4]; E. coli K-12, TB, 25° C.): 0.57
Ratio, growth (supplement/control) (E. coli K-12 [5]; E. coli K-12, TB, 25° C.): 0.54
